From patent US20080045588A1, “Preparation and utility of substituted amphetamines” (Auspex Pharmaceuticals, Inc., priority 2006, published 2008) come the findings set out here.

pIC50: −log10 of the molar value. Read-outs that look alike come from different tables or passages of the source.

This series concerns the target CYP2D6 (Homo sapiens, UniProt P10635). Description: In vitro inhibition of human cytochrome P450 enzymes (fluorometric, 3-cyano-7-ethoxycoumarin substrate). Here is the method: In vitro Inhibition of Human Cytochrome P450 Enzymes
Solution A: NADPH-Regenerating System
To a glass tube on ice were added sequentially: 2% aqueous solution of sodium bicarbonate (10 mL) in NADP^+ (17 mg), glucose-6-phosphate (78 mg) and glucose-6-phosphate dehydrogenase (60 units).
To a glass tube on ice were added sequentially: 0.5 M KH2PO4 (pH 7.4, 2.4 mL), water (9 mL), CYP2D6 (480 μL of 1 picomol/microliter), and 3-cyano-7-ethoxycoumarin (5 mM in 2% acetonitrile-water, 120 microliter).
Solution A was transferred to a 96-well black plate (80 microliter per well), followed by various concentrations of a solution of N-methyl-1-[3,4-methylenedioxyphenyl]-2-aminopropane in 20% acetonitrile-water (20 microliter per well). The reaction was initiated by adding 100 microliter of solution B to each well of the 96-well plate. The plate was incubated for 30 minutes at 37° C. in the dark. The reaction was stopped by adding 75 microliter of stop buffer (4:1 acetonitrile-0.5 M Tris base) to each well, and the end point was measured in a fluorometer plate reader at λex=409 nm and λem=460 nm.

Sequence of CYP2D6 (P10635 whole entry): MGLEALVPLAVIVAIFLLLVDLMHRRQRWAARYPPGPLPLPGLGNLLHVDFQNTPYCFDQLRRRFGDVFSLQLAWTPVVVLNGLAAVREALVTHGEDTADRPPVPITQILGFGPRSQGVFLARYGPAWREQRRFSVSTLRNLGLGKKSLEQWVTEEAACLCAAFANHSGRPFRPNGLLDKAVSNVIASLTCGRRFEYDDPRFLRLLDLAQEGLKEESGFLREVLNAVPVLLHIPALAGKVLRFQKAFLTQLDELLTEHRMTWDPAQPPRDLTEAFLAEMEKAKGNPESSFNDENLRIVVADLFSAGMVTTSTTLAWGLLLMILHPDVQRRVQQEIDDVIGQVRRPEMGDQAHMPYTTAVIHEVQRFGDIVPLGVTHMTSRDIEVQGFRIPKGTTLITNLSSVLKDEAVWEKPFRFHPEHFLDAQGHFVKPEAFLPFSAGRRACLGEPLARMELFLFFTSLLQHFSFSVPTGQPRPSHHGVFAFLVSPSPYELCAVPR

`[2H]C(c1ccc2c(c1)OC([2H])([2H])O2)C([2H])(C)NC([2H])([2H])[2H]` (single isomer, unassigned) [example 9, d7-N-methyl-1-(3,4-methylenedioxyphenyl)-2-aminopropane] showed a pIC50 of 4.52. Still for that read-out and setting: as for `[2H]C1([2H])Oc2ccc(CC(C)NC)cc2O1` (single isomer, unassigned) [example 5, d2-N-methyl-1-(3,4-methylenedioxyphenyl)-2-aminopropane], the figure is 5.10. For the molecule `N[C@@H]1C[C@H]1c1ccccc1` (racemic) [Tranylcypromine, reference compound], where the note is “read-out: IC50 (inhibition concentration of CYP2D6), CYP2D6, 3-cyano-7-ethoxycoumarin substrate, 30 minutes at 37° C., fluorescence λex=409 nm, λem=460 nm”, the pIC50 was 5.62. Molecule `CNC(C)Cc1ccc2c(c1)OCO2` (centres unmarked) [N-methyl-1-[3,4-methylenedioxyphenyl]-2-aminopropane, reference compound] showed a pIC50 of 5.52.

Turning to `[2H]C([2H])([2H])NC(C)Cc1ccc2c(c1)OC([2H])([2H])O2` (single isomer, unassigned) [example 6, d5-N-methyl-1-(3,4-methylenedioxyphenyl)-2-aminopropane], the pIC50 was 5.10.
